Experimental data taken from US20040171592A1, “Organic nitrate-based compounds for the treatment of vasculopathies” (priority 2001, published 2004).
Marks after values point to notes of the source that are not given here.

Columns and labels:
[1] = tested on: restenosis experimentally caused by balloon angioplasty; assay: Restenosis induced in rats by balloon angioplasty (neointima/middle tunica thickness ratio); assay type: in vivo, Male Wistar rats; details: for Restenosis %: 14 days after vascular damage, control = 100; for formation of the neointima tunica in the vascular wall / restenosis (in words): summary of Table 1, NO-aspirin low doses, Aspirin high doses
Experimental: Efficacy of Aspirin and of 2-acetyloxybenzoic acid (3-nitrooxymethyl)phenyl ester (Formula XI), in an Experimental Model of Restenosis Induced in Rats
Male Wistar rats weighing 300-350 g were anaesthetized by intraperitoneal injection of ketamine (100 mg/kg) and xylazine (5 mg/kg) and subjected to angioplasty according to the procedure described by Indolfi et Al., Circulation, 1995, 92, 1230-1235, by using a little balloon catheter which was first introduced in the aortic arch through the right carotid, then swollen and then let pass three times forth and back in the duct lumen.
(§1) The rats were divided in the indicated groups (n. 12 animals each) and subjected to pharmacological treatment as described hereunder for the 14 days following the vascular damage. The compounds, dissolved in polyethylenglycol (PEG 400) were administered by os by gastric probe according to the following scheme:
2 groups received NO-Aspirin at the dose of 30 and 100 mg/kg, respectively,
2 groups received Aspirin at the dose of 16 and 54 mg/kg, respectively,
1 group received NO-Ketorolac at the dose of 10 mg/Kg,
1 group received Ketorolac at the dose of 5 mg/Kg,
the control group received only the carrier (PEG 400, 0.2 ml/rat).
At the end of the treatment the animals were anaesthetized as described above and the carotids were first washed by infusion, through the left ventricle, of saline buffer phosphate (PBS, pH 7,2, 100 ml) then fixed with PBS containing paraformaldehyde (4%).
(§2) The animals were sacrificed and the carotids removed. For each artery n. 6 sections having a thickness of 6 μm were isolated. Stomachs were removed and inspected for damages of the gastric mucosa, determining the areas of both bleeding lesions and non bleeding lesions. Said lesions were evaluated by a score according to known methods.
3 of the 6 sections of each artery were stained with hematoxylin and eosin to evidence different types of cells, the remaining 3 sections were stained first with aldehyde fuchsin and then with the Gieson solution to evidence the internal elastic lamina (IEL). The sections were photographed and the imagines were analyzed by an image analysis system (Qwin Lite, Leica, Milan).
The thicknesses respectively of the middle and neointima tunica, and of the duct wall were measured. The results reported in Table 1 are expressed as percentage of restenosis and have been calculated as a ratio between the thickness of the neointima tunica and that of the middle tunica […] measured in the sections obtained from the groups, assuming equal to 100 the N/M ratio of the control group.

gastric mucosa = assay: Damages to the gastric mucosa (lesion score) in the rats of the restenosis model; assay type: in vivo, Male Wistar rats; details: for Gastric damage Score: control score 2
Experimental: as §1, §2

[2] = tested on: SP-SHR rats (Stroke-Prone Spontaneously Hypertension Rats); assay: Mortality/survival in SP-SHR rats under chronic treatment for 16 weeks; assay type: in vivo; details: controls 0
From the text: Evaluation of the Mortality in SP-SHR Rats (Stroke-Prone Spontaneously Hypertension Rats) Treated With 2-acetyloxybenzoic acid (6-nitrooxymethyl)-2-methylpyridinyl hydrochloride ester (Formula XV), (NO-ASA) and Aspirin.
In this experiment SP-SHR rats were used which develop a severe hypertension, with a high incidence of spontaneous cerebral infarct. […] (Yamori Y. et al. Stroke 1976; 7: 46-53).
Three groups each formed by 12 SP-SHR rats, 8 weeks old at the beginning of the experiment, received for 16 weeks together with the daily diet Aspirin (54 mg/kg) NO-ASA (30 mg/kg); the control group received only the diet.
During the period of chronic treatment the percentage of animal survival was evaluated.

[3] = tested on: oxidized LDL in the vascular wall; assay: Vascular damage in carotids: oxidized LDL in the vascular wall (MDA2 antibody immunohistochemistry); assay type: in vivo, SP-SHR rats; details: control = 0
Experimental: Evaluation of the Vascular Damage in Animals Treated With NO-ASA and Aspirin
In this experiment SP-SHR rats were used, as in the previous Example.
Three groups, each formed by 12 SP-SHR rats, 8 weeks old at the beginning of the experiment, received respectively for 6 weeks, together with the daily diet Aspirin (54 mg/kg) NO-ASA (30 mg/kg) (two groups); the control group (third group) received only the diet.
At the end of the treatment the animals were sacrificed by decapitation and the carotids were isolated. The ducts were opened and washed with cold sterile buffer phosphate (PBS) containing EDTA (2 mM) and maintained in cold PBS (cooled in ice bath) containing 2, [6]-di-tert-butyl-p-cresol (50 μM), aprotin (0.001%), EDTA (50 mM) and chloramphenicol (0.008%). The arteries were fixed with formalin (10%), then soaked in paraffin and then dissected. An aliquot of the obtained sections was incubated with MDA2 antibodies, which are directed against specific epitopes for oxidized LDL.
The data were calculated by considering the number of the sections, positive at the immunohistochemical test with MDA2 antibodies, detected in the groups of the treated animals and in the control group, respectively. The results are expressed as percentage of reduction of the oxidized LDL (low density lipoprotein) presence in the vascular wall taking as 0 the LDL value measured in the control group.

[4] = 30 mg/kg/die with the daily diet
[5] = 54 mg/kg/die with the daily diet

O=C(c1ccccc1)c1ccc2n1CCC2C(=O)OCCCCO[N+](=O)[O-] (centres unmarked) [NO Ketorolac, 5-benzoyl-2,3-dihydro-1H-pyrrolizin-1-carboxylic acid (4-nitrooxy)butyl ester]
Restenosis % ([1]; 10 mg/Kg by os): 90%
formation of the neointima tunica in the vascular wall / restenosis (in words) [1]: not very effective
Gastric damage Score (gastric mucosa; Dose 10 mg/Kg): 20
gastric toxicity / lesions to the gastric mucosa (in words) (gastric mucosa; summary of Table 1, Aspirin high doses): shows a gastric toxicity

O=C(c1ccccc1)c1ccc2n1CCC2C(=O)O (centres unmarked) [Ketorolac, ketorolac]
Restenosis % ([1]; 5 mg/Kg by os): 100%
Gastric damage Score (gastric mucosa; Dose 5 mg/Kg): 50

CC(=O)Oc1ccccc1C(=O)OCc1cccc(CO[N+](=O)[O-])n1.Cl [NO-ASA, 2-(acetyloxy)benzoic acid, 6-(nitrooxymethyl)-2-methyl pyridinyl hydrochloride ester]
% of survival, XVIth week [2, 4]: 100%
% of survival, Xth week [2, 4]: 100%
reduction % of the presence of oxidized LDL ([3]; 30 mg/kg with the daily diet for 6 weeks): 74%

CC(=O)Oc1ccccc1C(=O)O [Aspirin, aspirin]
Restenosis % ([1]; 16 mg/Kg by os): 100%
Restenosis % ([1]; 54 mg/Kg by os): 55* %
formation of the neointima tunica in the vascular wall / restenosis (in words) [1]: small reduction of the restenosis
% of survival, XVIth week [2, 5]: 50%
% of survival, Xth week [2, 5]: 100%
Gastric damage Score (gastric mucosa; Dose 50 mg/Kg): 22*
Gastric damage Score (gastric mucosa; Dose 100 mg/Kg): 42*
gastric toxicity / lesions to the gastric mucosa (in words) (gastric mucosa; rat, in vivo): produce lesions to the gastric mucosa
reduction % of the presence of oxidized LDL ([3]; 54 mg/kg with the daily diet for 6 weeks): 19%

CC(=O)Oc1ccccc1C(=O)Oc1cccc(CO[N+](=O)[O-])c1 [NO-Aspirin, 2-(acetyloxy)benzoic acid 3-(nitrooxymethyl)phenyl ester]
Restenosis % ([1]; 30 mg/Kg by os): 62.5* %
Restenosis % ([1]; 100 mg/Kg by os): 31* %
formation of the neointima tunica in the vascular wall / restenosis (in words) [1]: already significantly reduced
Gastric damage Score (gastric mucosa; Dose 166 mg/Kg): 2
Gastric damage Score (gastric mucosa; Dose 249 mg/Kg): 4
